# Data reported in article PMC10643470, “Knockout or inhibition of USP30 protects dopaminergic neurons in a Parkinson’s disease mouse model” (Nature Communications, 2023).
# Values joined by “and” are separate entries in the source; they are usually repeats but may differ in a detail not shown here. Identical values can stand only once.
# Tests used:
# USP36 CD = target: T1, USP36 CD (Homo sapiens, UniProt Q9P275); assay: DUB/cathepsin selectivity biochemical assay
# T1 construct: USP36 CD
# USP10 = USP10 (Homo sapiens, UniProt Q14694); assay: DUB/cathepsin selectivity biochemical assay
# USP48 = USP48 (Homo sapiens, UniProt Q86UV5); assay: DUB/cathepsin selectivity biochemical assay
# Sequence of USP48 (Q86UV5 whole entry, species assumed): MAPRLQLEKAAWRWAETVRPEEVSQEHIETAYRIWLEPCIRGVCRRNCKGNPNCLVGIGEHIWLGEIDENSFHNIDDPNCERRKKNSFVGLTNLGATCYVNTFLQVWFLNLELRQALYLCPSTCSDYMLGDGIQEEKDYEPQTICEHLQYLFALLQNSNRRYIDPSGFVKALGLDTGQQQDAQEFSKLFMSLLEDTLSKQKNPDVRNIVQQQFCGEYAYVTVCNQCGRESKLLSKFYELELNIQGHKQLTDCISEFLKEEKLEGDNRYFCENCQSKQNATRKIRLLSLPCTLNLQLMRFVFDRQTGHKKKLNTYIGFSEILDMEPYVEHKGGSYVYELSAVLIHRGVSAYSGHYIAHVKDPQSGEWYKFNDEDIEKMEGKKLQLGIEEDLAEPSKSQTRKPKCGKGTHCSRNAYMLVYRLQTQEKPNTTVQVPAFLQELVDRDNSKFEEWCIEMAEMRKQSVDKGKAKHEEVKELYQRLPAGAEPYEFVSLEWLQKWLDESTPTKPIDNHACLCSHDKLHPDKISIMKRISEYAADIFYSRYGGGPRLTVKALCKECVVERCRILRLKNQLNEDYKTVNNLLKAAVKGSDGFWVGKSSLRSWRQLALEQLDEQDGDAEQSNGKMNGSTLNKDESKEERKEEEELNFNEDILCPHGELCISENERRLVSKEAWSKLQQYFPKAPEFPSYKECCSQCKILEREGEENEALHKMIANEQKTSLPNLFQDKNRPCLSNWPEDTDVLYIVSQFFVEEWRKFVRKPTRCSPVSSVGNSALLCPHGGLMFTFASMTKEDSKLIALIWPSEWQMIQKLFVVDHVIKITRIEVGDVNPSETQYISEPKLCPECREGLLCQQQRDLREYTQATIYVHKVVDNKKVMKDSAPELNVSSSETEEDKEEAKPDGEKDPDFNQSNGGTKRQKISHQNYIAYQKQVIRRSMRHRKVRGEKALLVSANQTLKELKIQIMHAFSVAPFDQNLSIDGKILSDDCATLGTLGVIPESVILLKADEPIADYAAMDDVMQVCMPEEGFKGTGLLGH
# UchL3 = UchL3 (Homo sapiens, UniProt P15374); assay: DUB/cathepsin selectivity biochemical assay
# Sequence of UchL3 (P15374 whole entry, species assumed): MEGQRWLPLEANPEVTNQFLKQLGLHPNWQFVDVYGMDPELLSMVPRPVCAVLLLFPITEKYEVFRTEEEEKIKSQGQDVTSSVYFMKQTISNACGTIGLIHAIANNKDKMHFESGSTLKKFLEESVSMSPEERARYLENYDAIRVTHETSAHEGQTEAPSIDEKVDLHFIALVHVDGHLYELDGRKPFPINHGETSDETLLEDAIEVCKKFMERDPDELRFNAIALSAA
# USP5 = USP5 (Homo sapiens, UniProt P45974); assay: DUB/cathepsin selectivity biochemical assay
# YOD1 = YOD1 (Homo sapiens, UniProt Q5VVQ6); assay: DUB/cathepsin selectivity biochemical assay
# Trabid = Trabid (Homo sapiens, UniProt Q9UGI0); assay: DUB/cathepsin selectivity biochemical assay
# OTUD1 CD = target: T2, OTUD1 CD (Homo sapiens, UniProt Q5VV17); assay: DUB/cathepsin selectivity biochemical assay
# T2 construct: OTUD1 CD
# T2 sequence (Q5VV17 309-438 limits assumed): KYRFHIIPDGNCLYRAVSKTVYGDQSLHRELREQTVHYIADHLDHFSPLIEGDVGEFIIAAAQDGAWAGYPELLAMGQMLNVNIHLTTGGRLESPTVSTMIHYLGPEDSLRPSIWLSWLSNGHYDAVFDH
# OTUD6A = OTUD6A (Homo sapiens, UniProt Q7L8S5); assay: DUB/cathepsin selectivity biochemical assay
# Sequence of OTUD6A (Q7L8S5 whole entry, species assumed): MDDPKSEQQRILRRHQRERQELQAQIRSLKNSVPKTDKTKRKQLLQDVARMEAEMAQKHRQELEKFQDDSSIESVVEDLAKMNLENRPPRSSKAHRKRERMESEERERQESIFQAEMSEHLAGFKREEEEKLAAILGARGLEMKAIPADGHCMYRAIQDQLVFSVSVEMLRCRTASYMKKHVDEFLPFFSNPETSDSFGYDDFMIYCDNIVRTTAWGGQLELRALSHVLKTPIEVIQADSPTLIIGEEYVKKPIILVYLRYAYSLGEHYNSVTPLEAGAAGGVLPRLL
# USP25 = USP25 (Homo sapiens, UniProt Q9UHP3); assay: DUB/cathepsin selectivity biochemical assay
# USP13 = USP13 (Homo sapiens, UniProt Q92995); assay: DUB/cathepsin selectivity biochemical assay
# USP11 = USP11 (Homo sapiens, UniProt P51784); assay: DUB/cathepsin selectivity biochemical assay
# CYLD = CYLD (Homo sapiens, UniProt Q9NQC7); assay: DUB/cathepsin selectivity biochemical assay
# mouse USP30 = target: T3, mouse USP30 (Mus musculus, UniProt Q3UN04); assay: USP30 biochemical fluorescence polarization assay (mouse); details: read-out: Mouse USP30 FP assay (IC50)
# T3 construct: Mouse USP30(57-517) (Boston Biochem, #E-582M); purchased Boston Biochem E-582M
# T3 sequence (Q3UN04 57-517): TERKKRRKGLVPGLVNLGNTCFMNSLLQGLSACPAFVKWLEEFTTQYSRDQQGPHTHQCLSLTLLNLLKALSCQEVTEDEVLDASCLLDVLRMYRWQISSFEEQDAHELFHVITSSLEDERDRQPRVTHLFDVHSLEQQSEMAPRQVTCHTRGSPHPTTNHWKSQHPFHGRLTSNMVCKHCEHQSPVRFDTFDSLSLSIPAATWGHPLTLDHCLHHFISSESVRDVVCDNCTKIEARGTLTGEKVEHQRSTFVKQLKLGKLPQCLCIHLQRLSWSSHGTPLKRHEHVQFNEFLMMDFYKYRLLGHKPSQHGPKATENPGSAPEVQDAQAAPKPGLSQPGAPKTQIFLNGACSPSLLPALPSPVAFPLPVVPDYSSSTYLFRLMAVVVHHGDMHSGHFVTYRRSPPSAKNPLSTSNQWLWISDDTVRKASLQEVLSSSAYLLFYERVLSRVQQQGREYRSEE
# Protocol: USP30 enzyme was diluted in reaction buffer (40 mM Tris HCl, pH 7.5, 0.005% Tween 20, 0.5 mg/ml BSA, 5 mM BME) to achieve a final concentration of 8 nM for human USP30 and 10 nM for mouse USP30, the compound was added and incubated for 30 min at room temp then reactions initiated by addition of Ub-Lys-TAMRA (final conc of 50 nM). Fluorescence was measured immediately after the addition of substrate and following a 2 h incubation on Pherastar Plus or FSX with λ Excitation 540 nm and λ Emission 590 nm.
# USP1 = USP1 (Homo sapiens, UniProt O94782); assay: DUB/cathepsin selectivity biochemical assay
# Sequence of USP1 (O94782 whole entry, species assumed): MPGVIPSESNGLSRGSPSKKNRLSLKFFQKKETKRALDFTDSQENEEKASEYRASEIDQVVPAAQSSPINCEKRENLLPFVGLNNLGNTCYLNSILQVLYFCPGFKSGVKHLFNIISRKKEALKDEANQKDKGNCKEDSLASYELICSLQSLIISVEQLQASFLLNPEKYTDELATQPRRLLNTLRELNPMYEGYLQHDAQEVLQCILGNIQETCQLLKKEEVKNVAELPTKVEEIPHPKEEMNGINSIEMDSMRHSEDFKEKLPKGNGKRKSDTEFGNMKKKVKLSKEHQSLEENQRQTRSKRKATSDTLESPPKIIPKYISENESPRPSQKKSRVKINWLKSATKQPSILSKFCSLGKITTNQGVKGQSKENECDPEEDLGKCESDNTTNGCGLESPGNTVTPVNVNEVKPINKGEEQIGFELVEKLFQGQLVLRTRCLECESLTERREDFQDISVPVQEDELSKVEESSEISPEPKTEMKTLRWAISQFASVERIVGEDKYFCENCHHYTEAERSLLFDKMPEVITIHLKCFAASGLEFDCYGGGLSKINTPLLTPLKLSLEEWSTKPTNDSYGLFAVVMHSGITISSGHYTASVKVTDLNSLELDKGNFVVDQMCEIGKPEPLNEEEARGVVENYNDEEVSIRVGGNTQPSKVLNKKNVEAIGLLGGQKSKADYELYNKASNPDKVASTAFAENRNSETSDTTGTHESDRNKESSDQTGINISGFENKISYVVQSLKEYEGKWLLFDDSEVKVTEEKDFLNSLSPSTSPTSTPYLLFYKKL
# Sequence of USP1 (Q8TAF3 whole entry partner, species assumed): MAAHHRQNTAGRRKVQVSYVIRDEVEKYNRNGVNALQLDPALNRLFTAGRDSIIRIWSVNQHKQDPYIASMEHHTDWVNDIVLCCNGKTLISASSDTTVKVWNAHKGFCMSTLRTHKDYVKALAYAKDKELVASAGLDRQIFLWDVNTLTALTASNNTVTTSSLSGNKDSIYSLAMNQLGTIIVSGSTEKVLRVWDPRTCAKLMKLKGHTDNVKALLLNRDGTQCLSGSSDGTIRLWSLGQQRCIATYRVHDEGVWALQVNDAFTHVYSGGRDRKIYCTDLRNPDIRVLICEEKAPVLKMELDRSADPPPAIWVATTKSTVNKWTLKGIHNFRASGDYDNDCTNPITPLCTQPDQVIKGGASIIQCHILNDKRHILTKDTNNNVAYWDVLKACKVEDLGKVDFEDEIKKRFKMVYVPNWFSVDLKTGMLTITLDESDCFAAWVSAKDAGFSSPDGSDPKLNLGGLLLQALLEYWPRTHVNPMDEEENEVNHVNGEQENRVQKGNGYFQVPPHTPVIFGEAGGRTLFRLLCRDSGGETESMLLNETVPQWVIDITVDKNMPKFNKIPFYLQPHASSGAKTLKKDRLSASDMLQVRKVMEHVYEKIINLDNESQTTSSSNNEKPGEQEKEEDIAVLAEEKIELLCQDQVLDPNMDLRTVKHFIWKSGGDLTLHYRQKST
# USPL1 = USPL1 (Homo sapiens, UniProt Q5W0Q7); assay: DUB/cathepsin selectivity biochemical assay
# USP46/UAF1 = USP46/UAF1 (Homo sapiens, UniProt P62068); assay: DUB/cathepsin selectivity biochemical assay
# USP7 = USP7 (Homo sapiens, UniProt Q93009); assay: DUB/cathepsin selectivity biochemical assay
# Sequence of USP7 (Q93009 whole entry, species assumed): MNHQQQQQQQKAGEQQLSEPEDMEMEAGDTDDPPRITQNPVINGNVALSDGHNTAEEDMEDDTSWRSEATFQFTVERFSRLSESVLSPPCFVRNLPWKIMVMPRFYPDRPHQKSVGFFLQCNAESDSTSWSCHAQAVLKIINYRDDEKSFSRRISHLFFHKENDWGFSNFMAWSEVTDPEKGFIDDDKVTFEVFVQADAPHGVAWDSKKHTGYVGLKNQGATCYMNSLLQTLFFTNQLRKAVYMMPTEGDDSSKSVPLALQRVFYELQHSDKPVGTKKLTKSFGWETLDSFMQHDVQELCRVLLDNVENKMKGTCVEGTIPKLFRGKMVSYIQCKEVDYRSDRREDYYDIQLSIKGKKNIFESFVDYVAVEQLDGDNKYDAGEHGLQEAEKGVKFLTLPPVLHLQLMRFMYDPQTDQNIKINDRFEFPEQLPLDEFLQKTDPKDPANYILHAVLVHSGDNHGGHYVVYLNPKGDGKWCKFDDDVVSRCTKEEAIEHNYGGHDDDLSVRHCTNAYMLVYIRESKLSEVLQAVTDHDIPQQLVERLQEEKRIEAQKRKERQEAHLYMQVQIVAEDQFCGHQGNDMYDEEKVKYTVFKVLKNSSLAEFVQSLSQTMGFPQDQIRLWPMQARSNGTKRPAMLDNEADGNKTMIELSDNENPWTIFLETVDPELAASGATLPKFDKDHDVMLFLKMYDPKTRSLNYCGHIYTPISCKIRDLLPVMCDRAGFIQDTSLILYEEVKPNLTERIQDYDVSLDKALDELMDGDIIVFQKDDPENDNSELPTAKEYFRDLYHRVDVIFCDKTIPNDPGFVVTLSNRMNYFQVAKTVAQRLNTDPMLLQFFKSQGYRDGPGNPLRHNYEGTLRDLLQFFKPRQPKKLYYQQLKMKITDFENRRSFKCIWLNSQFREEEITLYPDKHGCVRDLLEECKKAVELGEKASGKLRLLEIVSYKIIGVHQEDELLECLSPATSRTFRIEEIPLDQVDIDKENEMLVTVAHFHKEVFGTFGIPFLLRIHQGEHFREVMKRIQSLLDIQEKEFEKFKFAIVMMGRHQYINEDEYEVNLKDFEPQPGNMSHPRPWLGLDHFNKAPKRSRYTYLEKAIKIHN
# Cathepsin L = Cathepsin L (Homo sapiens, UniProt P07711); assay: DUB/cathepsin selectivity biochemical assay; details: Supplementary Fig. 6a; read-out: Selectivity vs Cathepsins (IC50), Cath L
# USP12/UAF1 = USP12/UAF1 (Homo sapiens, UniProt O75317); assay: DUB/cathepsin selectivity biochemical assay
# USP24 = USP24 (Homo sapiens, UniProt Q9UPU5); assay: DUB/cathepsin selectivity biochemical assay
# USP32 = USP32 (Homo sapiens, UniProt Q8NFA0); assay: DUB/cathepsin selectivity biochemical assay
# SENP1 CD = target: T4, SENP1 CD (Homo sapiens, UniProt Q9P0U3); assay: DUB/cathepsin selectivity biochemical assay
# T4 construct: SENP1 CD
# USP35 = USP35 (Homo sapiens, UniProt Q9P2H5); assay: DUB/cathepsin selectivity biochemical assay
# [1] = Mouse exploratory toxicology; format: in vivo; details: two weeks of dosing, dose levels up to 300 mg/kg/day
# USP4 = USP4 (Homo sapiens, UniProt Q13107); assay: DUB/cathepsin selectivity biochemical assay
# [2] = In-life whole blood compound levels in the A53T model; format: in vivo, mouse; details: for Blood exposure / Cmax: A53T model; for Blood exposure: 0.5-6 h sampling; for In-life whole blood compound level (Figure 4d): individual animals; for Cmax: mouse, whole blood, seven days before end of study
# Protocol: In-life blood samples were taken at 0.5, 1, 2, 4, 6 h, timed relative to the first daily dose, from n = 3 animals per time point to give a composite profile from animals in each group. The in-life blood samples were collected from the saphenous vein (20 µL), transferred in an Eppendorf tube immediately and mixed with an equal volume (20 µL) of ice-cold Serine esterase inhibitor, trichlorfon (100 µM), the sample was frozen, stored at −80 °C and compound levels analyzed by LC-MS.
# CEZANNE1 = CEZANNE1 (Homo sapiens, UniProt Q6GQQ9); assay: DUB/cathepsin selectivity biochemical assay
# T1 sequence (Q9P275 122-423 limits assumed): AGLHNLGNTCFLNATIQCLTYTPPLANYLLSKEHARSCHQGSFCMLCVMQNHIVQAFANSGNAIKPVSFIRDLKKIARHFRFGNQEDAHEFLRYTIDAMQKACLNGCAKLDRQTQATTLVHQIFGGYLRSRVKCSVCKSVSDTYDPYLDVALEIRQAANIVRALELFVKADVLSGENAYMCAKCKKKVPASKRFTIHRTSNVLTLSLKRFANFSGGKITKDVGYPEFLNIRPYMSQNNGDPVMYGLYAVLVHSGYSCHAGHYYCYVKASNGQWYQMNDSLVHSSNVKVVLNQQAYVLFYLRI
compound,measurement,setting,value
C[C@@H]1[C@H]2CCN(C(=O)c3ncc(-c4ccnc(C#N)c4)o3)[C@H]2CN1C#N [MTX115325],IC50,USP36 CD,157 µM
same,IC50,USP10,107 µM
same,IC50,USP48,> 300 µM
same,IC50,UchL3,> 300 µM
same,IC50,USP5,> 300 µM
same,IC50,YOD1,> 300 µM
same,IC50,Trabid,> 300 µM
same,IC50,OTUD1 CD,> 300 µM
same,IC50,OTUD6A,> 300 µM
same,IC50,USP25,93.2 µM
same,IC50,USP13,> 300 µM
same,IC50,USP11,291 µM
same,IC50,CYLD,> 300 µM
same,IC50,mouse USP30,0.013 µM
same,IC50,USP1,> 300 µM
same,IC50,USPL1,> 300 µM
same,IC50,USP46/UAF1,> 300 µM
same,IC50,USP7,> 300 µM
same,IC50,Cathepsin L,42.1 µM
same,IC50,USP12/UAF1,> 300 µM
same,IC50,USP24,> 300 µM
same,IC50,USP32,120 µM
same,IC50,SENP1 CD,> 300 µM
same,IC50,USP35,> 300 µM
same,"Tolerability (clinical observations, pathology)",[1],well tolerated with no adverse clinical observations or pathology findings
same,IC50,USP4,> 300 µM
same,Blood exposure,[2]; 15 mg/kg BID oral,13606 ng·h/mL
same,In-life whole blood compound level (Figure 4d),"[2]; 15mg/kg, 0 hours",0
same,In-life whole blood compound level (Figure 4d),"[2]; 15mg/kg, 0.5 hours",6664.93 and 11816.1
same,In-life whole blood compound level (Figure 4d),"[2]; 15mg/kg, 1 hour",7008.88 and 8260.64
same,In-life whole blood compound level (Figure 4d),"[2]; 15mg/kg, 2 hours",2278.7 and 2189.81
same,In-life whole blood compound level (Figure 4d),"[2]; 15mg/kg, 4 hours",404.48 and 419 and 425.15
same,In-life whole blood compound level (Figure 4d),"[2]; 15mg/kg, 6 hours",92.39 and 277.42
same,Blood exposure,[2]; 50 mg/kg BID oral,42959 ng·h/mL
same,In-life whole blood compound level (Figure 4d),"[2]; 50mg/kg, 0 hours",0
same,In-life whole blood compound level (Figure 4d),"[2]; 50mg/kg, 0.5 hours",12073.7 and 13499.1 and 13769.4
same,In-life whole blood compound level (Figure 4d),"[2]; 50mg/kg, 1 hour",13326.8 and 14323.4 and 17878.5
same,In-life whole blood compound level (Figure 4d),"[2]; 50mg/kg, 2 hours",8220.29 and 5260.76
same,In-life whole blood compound level (Figure 4d),"[2]; 50mg/kg, 4 hours",1244.02 and 1284.38
same,In-life whole blood compound level (Figure 4d),"[2]; 50mg/kg, 6 hours",402.46 and 633.68
same,Cmax,[2]; 15 mg/kg BID oral,7550 ng/mL
same,Cmax,[2]; 50 mg/kg BID oral,16400 ng/mL
same,IC50,CEZANNE1,> 300 µM
